According to the NIST ThermoML archive (doi:10.1021/je800043a):
Numbers after ± are expanded uncertainties.

Experiment: activity coefficient (dimensionless); of the first substance listed, at infinite dilution; xn = mol fraction of the nth substance listed
Settings: Liquid, Chromatography, x1 = 0

SMILES | activity coefficient (303.15 K) | activity coefficient (313.15 K) | activity coefficient (323.15 K) | activity coefficient (333.15 K) | activity coefficient (343.15 K) | activity coefficient (353.15 K) | activity coefficient (363.15 K)
Cc1ccccc1C [1,2-dimethylbenzene] + CCCCCCn1cc[n+](C)c1.O=S(=O)([O-])C(F)(F)F | 2.39 ± 0.25 | 2.47 ± 0.26 | 2.56 ± 0.27 | 2.64 ± 0.28 | 2.67 ± 0.28 | 2.72 ± 0.28 | 2.8 ± 0.29
Cc1cccc(C)c1 [1,3-dimethylbenzene] + CCCCCCn1cc[n+](C)c1.O=S(=O)([O-])C(F)(F)F | 2.82 ± 0.3 | 2.88 ± 0.3 | 2.97 ± 0.31 | 3.03 ± 0.32 | 3.12 ± 0.33 | 3.19 ± 0.34 | 3.25 ± 0.34
Cc1ccc(C)cc1 [1,4-dimethylbenzene] + CCCCCCn1cc[n+](C)c1.O=S(=O)([O-])C(F)(F)F | 2.76 ± 0.29 | 2.84 ± 0.3 | 2.91 ± 0.3 | 2.97 ± 0.31 | 3.08 ± 0.32 | 3.16 ± 0.33 | 3.22 ± 0.34
CC(C)CC(C)(C)C [2,2,4-trimethylpentane] + CCCCCCn1cc[n+](C)c1.O=S(=O)([O-])C(F)(F)F | 27.5 ± 2.9 | 26.9 ± 2.8 | 26.7 ± 2.8 | 26.3 ± 2.8 | 25.9 ± 2.7 | 25.7 ± 2.7 | 25.4 ± 2.7
c1ccccc1 [benzene] + CCCCCCn1cc[n+](C)c1.O=S(=O)([O-])C(F)(F)F | 1.43 ± 0.15 | 1.48 ± 0.15 | 1.5 ± 0.16 | 1.55 ± 0.16 | 1.6 ± 0.2 | 1.64 ± 0.17 | 1.65 ± 0.17
C1CCCCC1 [cyclohexane] + CCCCCCn1cc[n+](C)c1.O=S(=O)([O-])C(F)(F)F | 11 ± 1.1 | 10.9 ± 1.1 | 10.8 ± 1.1 | 10.7 ± 1.1 | 10.6 ± 1.1 | 10.5 ± 1.1 | 10.5 ± 1.1
C1=CCCCC1 [cyclohexene] + CCCCCCn1cc[n+](C)c1.O=S(=O)([O-])C(F)(F)F | 6.12 ± 0.64 | 6.2 ± 0.65 | 6.26 ± 0.66 | 6.37 ± 0.67 | 6.43 ± 0.68 | 6.5 ± 0.68 | 6.55 ± 0.69
CCCCCCCCCC [decane] + CCCCCCn1cc[n+](C)c1.O=S(=O)([O-])C(F)(F)F | 457 ± 48 | 357 ± 38 | 279 ± 29 | 227 ± 24 | 184 ± 19 | 148 ± 16 | 112 ± 12
CCc1ccccc1 [ethylbenzene] + CCCCCCn1cc[n+](C)c1.O=S(=O)([O-])C(F)(F)F | 2.88 ± 0.3 | 2.94 ± 0.31 | 2.99 ± 0.31 | 3.04 ± 0.32 | 3.12 ± 0.33 | 3.21 ± 0.34 | 3.27 ± 0.34
CCCCCCC [heptane] + CCCCCCn1cc[n+](C)c1.O=S(=O)([O-])C(F)(F)F | 26.9 ± 2.8 | 26.7 ± 2.8 | 26.6 ± 2.8 | 26.5 ± 2.8 | 26.4 ± 2.8 | 26.3 ± 2.8 | 26.1 ± 2.7
CCCCCC [hexane] + CCCCCCn1cc[n+](C)c1.O=S(=O)([O-])C(F)(F)F | 21.3 ± 2.2 | 21.2 ± 2.2 | 21.1 ± 2.2 | 20.9 ± 2.2 | 20.8 ± 2.2 | 20.7 ± 2.2 | 20.5 ± 2.2
CC1CCCCC1 [methylcyclohexane] + CCCCCCn1cc[n+](C)c1.O=S(=O)([O-])C(F)(F)F | 14.1 ± 1.5 | 14 ± 2 | 13.9 ± 1.5 | 13.8 ± 1.4 | 13.7 ± 1.4 | 13.6 ± 1.4 | 13.5 ± 1.4
CCCCCCCCC [nonane] + CCCCCCn1cc[n+](C)c1.O=S(=O)([O-])C(F)(F)F | 45.4 ± 4.8 | 44.6 ± 4.7 | 43.7 ± 4.6 | 42.3 ± 4.5 | 41.8 ± 4.4 | 40.3 ± 4.2 | 39.9 ± 4.2
CCCCCCCC [octane] + CCCCCCn1cc[n+](C)c1.O=S(=O)([O-])C(F)(F)F | 35 ± 3.7 | 34.5 ± 3.6 | 33.9 ± 3.6 | 33.4 ± 3.5 | 33.1 ± 3.5 | 32.7 ± 3.4 | 32 ± 3.4
CCCCC [pentane] + CCCCCCn1cc[n+](C)c1.O=S(=O)([O-])C(F)(F)F | 14.8 ± 1.6 | 14.6 ± 1.5 | 14.5 ± 1.5 | 14.3 ± 1.5 | 14.1 ± 1.5 | 14 ± 1.5 | 13.9 ± 1.5
C=Cc1ccccc1 [styrene] + CCCCCCn1cc[n+](C)c1.O=S(=O)([O-])C(F)(F)F | 1.7 ± 0.2 | 1.73 ± 0.18 | 1.76 ± 0.18 | 1.81 ± 0.19 | 1.84 ± 0.19 | 1.85 ± 0.19 | 1.88 ± 0.2
Cc1ccccc1 [toluene] + CCCCCCn1cc[n+](C)c1.O=S(=O)([O-])C(F)(F)F | 1.98 ± 0.21 | 2.03 ± 0.21 | 2.06 ± 0.22 | 2.14 ± 0.23 | 2.2 ± 0.23 | 2.25 ± 0.24 | 2.27 ± 0.24
